Data reported in US20240270741A1 (Cogent Biosciences, Inc., priority 2023, published 2024).

Target: FGFR2 (Homo sapiens, UniProt P21802)
Test: FGFR wild type enzyme assay (HTRF KinEASE-TK), FGFR2
Conditions: Enz FGFR2 (nM), FGFR2 wild type enzyme

Sequence of FGFR2 (P21802 399-821 limits assumed): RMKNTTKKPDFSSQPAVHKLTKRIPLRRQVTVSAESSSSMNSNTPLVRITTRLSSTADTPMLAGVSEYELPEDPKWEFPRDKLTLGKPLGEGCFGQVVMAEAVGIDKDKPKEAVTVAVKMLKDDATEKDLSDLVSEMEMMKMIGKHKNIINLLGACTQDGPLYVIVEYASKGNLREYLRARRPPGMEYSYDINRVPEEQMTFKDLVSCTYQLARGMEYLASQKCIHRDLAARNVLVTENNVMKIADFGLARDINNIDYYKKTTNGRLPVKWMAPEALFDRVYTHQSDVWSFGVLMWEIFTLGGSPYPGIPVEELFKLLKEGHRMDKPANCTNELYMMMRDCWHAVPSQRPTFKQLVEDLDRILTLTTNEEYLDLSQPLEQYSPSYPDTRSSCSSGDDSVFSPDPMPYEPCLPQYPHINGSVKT

SMILES	IC50 [nM]
CO[C@H](C)CN1CCC(n2ncc(-c3cc(Sc4ncccc4F)c4c(C#N)cnn4c3)c2C)CC1 [Example 148, (R)-4-((3-fluoropyridin-2-yl)thio)-6-(1-(1-(2-methoxypropyl)piperidin-4-yl)-5-methyl-1H-pyrazol-4-yl)pyrazolo[1,5-a]pyridine-3-carbonitrile]	2
CO[C@@H](C)CN1CCC(n2ncc(-c3cc(Sc4ncccc4F)c4c(C#N)cnn4c3)c2C)CC1 [Example 149, (S)-4-((3-fluoropyridin-2-yl)thio)-6-(1-(1-(2-methoxypropyl)piperidin-4-yl)-5-methyl-1H-pyrazol-4-yl)pyrazolo[1,5-a]pyridine-3-carbonitrile]	2
Cc1c(-c2cc(Sc3ncccc3F)c3c(C#N)cnn3c2)cnn1C[C@@H]1CCCNC1 [Example 150, (R)-4-((3-fluoropyridin-2-yl)thio)-6-(5-methyl-1-(piperidin-3-ylmethyl)-1H-pyrazol-4-yl)pyrazolo[1,5-a]pyridine-3-carbonitrile]	4
Cc1c(-c2cc(Sc3c(F)cc(F)cc3C#N)c3c(C#N)cnn3c2)cnn1C1CCN(C)CC1 [Example 151]	2
CC(=O)N1CCC(n2ncc(-c3cc(Sc4ncccc4F)c4c(C#N)cnn4c3)c2C)CC1 [Example 152, 6-(1-(1-acetylpiperidin-4-yl)-5-methyl-1H-pyrazol-4-yl)-4-((3-fluoropyridin-2-yl)thio)pyrazolo[1,5-a]pyridine-3-carbonitrile]	2
Cc1c(-c2cc(Sc3ncccc3F)c3c(C#N)cnn3c2)cnn1C1CCN(S(C)(=O)=O)CC1 [Example 153, 4-[(3-fluoro-2-pyridyl)sulfanyl]-6-[5-methyl-1-(1-methylsulfonyl-4-piperidyl)pyrazol-4-yl]pyrazolo[1,5-a]pyridine-3-carbonitrile]	2
Cc1c(-c2cc(Sc3ncccc3F)c3c(C#N)cnn3c2)cnn1[C@H]1CCNC[C@@H]1F [Example 154, 6-[1-[(3S,4S)-3-fluoro-4-piperidyl]-5-methyl-pyrazol-4-yl]-4-[(3-fluoro-2-pyridyl)sulfanyl]pyrazolo[1,5-a]pyridine-3-carbonitrile]	2
CO[C@@H](C)CN1CCC(n2ncc(-c3cc(Sc4ccccc4C#N)c4c(C#N)cnn4c3)c2C)CC1 [Example 157, (S)-4-((2-cyanophenyl)thio)-6-(1-(1-(2-methoxypropyl)piperidin-4-yl)-5-methyl-1H-pyrazol-4-yl)pyrazolo[1,5-a]pyridine-3-carbonitrile]	1
COCC(C)N1CCC(n2ncc(-c3cc(Sc4ncccc4F)c4c(C#N)cnn4c3)c2C)CC1 (stereo not shown) [Example 158, 4-((3-fluoropyridin-2-yl)thio)-6-(1-(1-(1-methoxypropan-2-yl)piperidin-4-yl)-5-methyl-1H-pyrazol-4-yl)pyrazolo[1,5-a]pyridine-3-carbonitrile]	2
Cc1c(-c2cc(Sc3ccccc3C#N)c3c(C#N)cnn3c2)cnn1C1CCC(N(C)C)CC1 (stereo not shown) [Example 159]	0.5
Cc1c(-c2cc(Sc3ncccc3F)c3c(C#N)cnn3c2)cnn1[C@@H](C)C1CCN(C)CC1 [Example 160, (S)-4-((3-fluoropyridin-2-yl)thio)-6-(5-methyl-1-(1-(1-methylpiperidin-4-yl)ethyl)-1H-pyrazol-4-yl)pyrazolo[1,5-a]pyridine-3-carbonitrile]	2
Cc1c(-c2cc(Sc3ncccc3F)c3c(C#N)cnn3c2)cnn1[C@@H](C)C1CCNCC1 [Example 161, 4-[(3-fluoro-2-pyridyl)sulfanyl]-6-[5-methyl-1-[(1S)-1-(4-piperidyl)ethyl]pyrazol-4-yl]pyrazolo[1,5-a]pyridine-3-carbonitrile]	2
Cc1c(-c2cc(Sc3ncccc3F)c3c(C#N)cnn3c2)cnn1C1CC2(CCNCC2)C1 [Example 162, 4-((3-fluoropyridin-2-yl)thio)-6-(5-methyl-1-(7-azaspiro[3.5]nonan-2-yl)-1H-pyrazol-4-yl)pyrazolo[1,5-a]pyridine-3-carbonitrile]	1
